Data from patent US20260125359A1, “HETEROARYL COMPOUNDS AS MULTI-TARGET PROTEIN KINASE INHIBITORS” (FUJIAN HAIXI PHARMACEUTICALS CO., LTD., priority 2023, published 2026).

The compounds below were run on M-NFS-60 cells (assay: M-NFS-60 cell in vitro assay (CCK, 48 h, M-CSF factor medium)). Conditions: M-NFS-60 cells; read-out: M-NFS-60cellassay IC50.
Assay type: cell-based
Outline: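 Mouse M-NFS-60 cells (2000/well) in RPMI-1640 with 10% serum and M-CSF (25 ng/ml) were pre-incubated 4 h, then exposed to DMSO-diluted compound gradients for 48 h at 5% CO2. Viability read by CCK, 2 h, OD 450 nm; IC50 from curve fitting.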

Which IC50 does the source give for `Cn1cc(-c2cncc(N[C@H]3CCc4c(Nc5ncc(C(C)(C)C)s5)cccc43)c2)cn1` [Compound 42m] here?
Its IC50 is 50 to 200 nM.

Which IC50 does the source give for `Cn1cc(-c2cncc(N[C@H]3CCc4c(Nc5cc(C(C)(C)C)no5)cccc43)c2)cn1` [Compound 42n] here?
The IC50 was 50 to 200 nM.

Which IC50 does the source give for `Cn1cc(-c2cncc(N[C@H]3CCc4c(Nc5cc(C(C)(C)C(F)(F)F)on5)cccc43)c2)cn1` [Compound 42p] here?
Its IC50 is < 50 nM.

With `Cn1cc(-c2cncc(N[C@H]3CCc4c(Nc5cc(C(F)(F)F)nn5C)cccc43)c2)cn1` [Compound 42q] as the compound, how does the IC50 read?
Its IC50 is > 500 nM.

`Cn1cc(-c2cncc(N[C@H]3CCc4c(Nc5cc(-c6ccccc6)on5)cccc43)c2)cn1` [Compound 42r] was tested. Which IC50 did it give?
Its IC50 is 50 to 200 nM.

For `Cn1cc(-c2cncc(N[C@H]3CCc4c(Nc5cc(C(C)(C)C)on5)ccc(F)c43)c2)cn1` [Compound 42s], which IC50 is on record?
The IC50 was < 50 nM.

Which IC50 does the source give for `Cn1cc(-c2cncc(N[C@H]3CCc4c(Nc5nc(C(C)(C)C)cs5)ccc(F)c43)c2)cn1` [Compound 42t] here?
The IC50 was 50 to 200 nM.

`Cc1cccc(C(=O)Nc2cc(F)cc3c2CCC3Nc2cncc(-c3cnn(C)c3)c2)c1` (centres unmarked) [Compound 44a] was tested. Which IC50 did it give?
Its IC50 is 50 to 200 nM.

`Cc1cccc(C(=O)Nc2ccc(F)c3c2CCC3Nc2cncc(-c3cnn(C)c3)c2)c1` (centres unmarked) [Compound 44b] was tested. Which IC50 did it give?
The IC50 was < 50 nM.

For `Cc1cccc(C(=O)Nc2cccc3c2CC(F)C3Nc2cncc(-c3cnn(C)c3)c2)c1` (centres unmarked) [Compound 44c], which IC50 is on record?
The IC50 was 50 to 200 nM.

How did the IC50 turn out when `Cn1cc(-c2cncc(NC3CCc4c(NC(=O)c5cccc(C6CC6)c5)ccnc43)c2)cn1` (centres unmarked) [Compound 44e] was run?
Its IC50 is 200 to 500 nM.

`Cc1cccc(C(=O)Nc2ccc(F)c3c2CC[C@@H]3Nc2cncc(-c3cnn(C)c3)c2)c1` [Compound 45, (S)—N-(7-fluoro-1-((5-(1-methyl-1H-pyrazol-4-yl)pyridin-3-yl)amino)-2,3-dihydro-1H-inden-4-yl)-3-methylbenzamide] was tested. Which IC50 did it give?
The IC50 was < 50 nM.

For `Cc1cccc(C(=O)Nc2cc(F)cc3c2CC[C@@H]3Nc2cncc(-c3cnn(C)c3)c2)c1` [Compound 46a], which IC50 is on record?
The IC50 was < 50 nM.

How did the IC50 turn out when `Cc1cccc(C(=O)Nc2c(F)ccc3c2CC[C@@H]3Nc2cncc(-c3cnn(C)c3)c2)c1` [Compound 46b] was run?
The IC50 was 50 to 200 nM.

How did the IC50 turn out when `Cn1cc(-c2cncc(N[C@H]3CCc4c(NC(=O)c5cccc(C6CC6)c5)ccc(F)c43)c2)cn1` [Compound 46c] was run?
The IC50 was < 50 nM.

How did the IC50 turn out when `Cn1cc(-c2cncc(N[C@H]3CCc4c(NC(=O)c5cccc(C(F)(F)F)c5)ccc(F)c43)c2)cn1` [Compound 46d] was run?
The IC50 was < 50 nM.

With `Cn1cc(-c2cncc(NC3COc4c(NC(=O)c5ccc(C(F)(F)F)cc5)cccc43)c2)cn1` (centres unmarked) [Compound 47, N-(3-((5-(1-methyl-1H-pyrazol-4-yl)pyridin-3-yl)amino)-2,3-dihydrobenzofuran-7-yl)-4-(trifluoromethyl)benzamide] as the compound, how does the IC50 read?
The IC50 was 50 to 200 nM.

With `Cn1cc(-c2cncc(NC3CCc4c(Nc5cc(C(C)(C)C)on5)cccc43)c2)cn1` (centres unmarked) [Compound 48, N^4-(5-(tert-butyl)isoxazol-3-yl)-N^1-(5-(1-methyl-1H-pyrazol-4-yl)pyridin-3-yl)-2,3-dihydro-1H-indene-1,4-diamine] as the compound, how does the IC50 read?
Its IC50 is < 50 nM.

How did the IC50 turn out when `CN(c1cncc(-c2cnn(C)c2)c1)[C@H]1CCc2c(Nc3cc(C(C)(C)C)on3)cccc21` [Compound 49, (S)—N^4-(5-(tert-butyl)isoxazol-3-yl)-N^1-methyl-N1-(5-(1-methyl-1H-pyrazol-4-yl)pyridin-3-yl)-2,3-dihydro-1H-indene-1,4-diamine] was run?
Its IC50 is > 500 nM.

`Cn1cc(-c2cncc(N[C@H]3CCc4c(C(=O)Nc5cccc(C6CC6)c5)ccc(F)c43)c2)cn1` [Compound 50, (S)—N-(3-cyclopropylphenyl)-7-fluoro-1-((5-(1-methyl-1H-pyrazol-4-yl)pyridin-3-yl)amino)-2,3-dihydro-1H-indene-4-carboxamide] was tested. Which IC50 did it give?
The IC50 was < 50 nM.

Which IC50 does the source give for `Cn1cc(-c2cncc(N[C@H]3CCc4c3ccc(F)c4C(=O)Nc3cccc(C4CC4)c3)c2)cn1` [Compound 51a] here?
The IC50 was < 50 nM.

Which IC50 does the source give for `Cn1cc(-c2cncc(N[C@H]3CCc4c(C(=O)Nc5cccc(C6CC6)c5)cc(F)cc43)c2)cn1` [Compound 51b] here?
Its IC50 is < 50 nM.

`CN(c1cncc(-c2cnn(C)c2)c1)[C@H]1CCc2c(C(=O)Nc3cccc(C4CC4)c3)cc(F)cc21` [Compound 52, (S)—N-(3-cyclopropylphenyl)-6-fluoro-1-(methyl (5-(1-methyl-1H-pyrazol-4-yl)pyridin-3-yl)amino)-2,3-dihydro-1H-indene-4-carboxamide] was tested. Which IC50 did it give?
Its IC50 is < 50 nM.

For `Cn1cc(-c2cncc(O[C@H]3CCc4c3ccc(F)c4C(=O)Nc3cccc(C4CC4)c3)c2)cn1` [Compound 53, (S)—N-(3-cyclopropylphenyl)-5-fluoro-1-((5-(1-methyl-1H-pyrazol-4-yl)pyridin-3-yl)oxy)-2,3-dihydro-1H-indene-4-carboxamide], which IC50 is on record?
Its IC50 is 50 to 200 nM.

With `Cn1cc(-c2cncc(N[C@H]3CCc4c(C(=O)Nc5cccc(C6CC6)c5)ccnc43)c2)cn1` [Compound 55, (S)—N-(3-cyclopropylphenyl)-7-((5-(1-methyl-1H-pyrazol-4-yl)pyridin-3-yl)amino)-6,7-dihydro-5H-cyclopenta[b]pyridine-4-carboxamide] as the compound, how does the IC50 read?
The IC50 was 200 to 500 nM.

`Cn1cc(-c2cc(O[C@H]3CCc4c(C(=O)Nc5ccc(C(F)(F)F)cc5)cccc43)ccn2)cn1` [Compound 56, (S)-1-((2-(1-methyl-1H-pyrazol-4-yl)pyridin-4-yl)oxy)-N-(4-(trifluoromethyl)phenyl)-2,3-dihydro-1H-indene-4-carboxamide] was tested. Which IC50 did it give?
Its IC50 is > 500 nM.

With `Cn1cc(-c2cc(N[C@H]3CCc4c(C(=O)Nc5cccc(C6CC6)c5)cccc43)ccn2)cn1` [Compound 57, (S)—N-(3-cyclopropylphenyl)-1-((2-(1-methyl-1H-pyrazol-4-yl)pyridin-4-yl)amino)-2,3-dihydro-1H-indene-4-carboxamide] as the compound, how does the IC50 read?
Its IC50 is > 500 nM.

How did the IC50 turn out when `Cn1cc(-c2cncc(N[C@H]3CCc4c(CNc5ccc(C(F)(F)F)cc5)cccc43)c2)cn1` [Compound 58, (S)-5-(1-methyl-1H-pyrazol-4-yl)-N-(4-(((4-(trifluoromethyl)phenyl)amino)methyl)-2,3-dihydro-1H-inden-1-yl) pyridin-3-amine] was run?
Its IC50 is > 500 nM.

How did the IC50 turn out when `COc1ccc(NCc2cccc3c2CC[C@@H]3Nc2cncc(-c3cnn(C)c3)c2)cc1` [Compound 59a] was run?
Its IC50 is 200 to 500 nM.

Which IC50 does the source give for `Cn1cc(-c2cncc(N[C@H]3CCc4c(CNc5cccc(C6CC6)c5)cccc43)c2)cn1` [Compound 59b] here?
Its IC50 is 200 to 500 nM.

For `Cn1cc(-c2cncc(N[C@H]3CCc4c(CNc5cccc(C(F)(F)F)c5)cccc43)c2)cn1` [Compound 59c], which IC50 is on record?
Its IC50 is > 500 nM.

`Cc1cccc(NCc2cccc3c2CC[C@@H]3Nc2cncc(-c3cnn(C)c3)n2)c1` [Compound 59d] was tested. Which IC50 did it give?
Its IC50 is 200 to 500 nM.

For `Cn1cc(-c2cncc(N[C@H]3CCc4c(CNc5ccccc5F)cccc43)n2)cn1` [Compound 59e], which IC50 is on record?
The IC50 was > 500 nM.

Which IC50 does the source give for `Cn1cc(-c2cncc(N[C@H]3CCc4c(CNC5CCCCC5)cccc43)n2)cn1` [Compound 59f] here?
Its IC50 is > 500 nM.

`Cn1cc(-c2cncc(N[C@H]3CCc4c(NC5CCCCC5)cccc43)n2)cn1` [Compound 60a] was tested. Which IC50 did it give?
Its IC50 is > 500 nM.

`Cn1cc(-c2cncc(N[C@H]3CCc4c(NCC5CCCCC5)cccc43)n2)cn1` [Compound 60b] was tested. Which IC50 did it give?
Its IC50 is > 500 nM.

How did the IC50 turn out when `Cn1cc(-c2cncc(N[C@H]3CCc4c(NCc5cccc(Cl)c5)cccc43)n2)cn1` [Compound 60c] was run?
The IC50 was > 500 nM.

Which IC50 does the source give for `Cn1cc(-c2cncc(N[C@H]3CCc4c(NCc5cccc(F)c5)cccc43)n2)cn1` [Compound 60d] here?
Its IC50 is > 500 nM.

`Cc1cncc(CNc2cccc3c2CC[C@@H]3Nc2cncc(-c3cnn(C)c3)n2)c1` [Compound 60e] was tested. Which IC50 did it give?
Its IC50 is > 500 nM.

How did the IC50 turn out when `Cn1cc(-c2cncc(N[C@H]3CCc4c(NC(c5cccc(Cl)c5)C(F)(F)F)cccc43)n2)cn1` (stereo partly drawn) [Compound 61, (1S)—N^4-(1-(3-chlorophenyl)-2,2,2-trifluoroethyl)-N1-(6-(1-methyl-1H-pyrazol-4-yl)pyrazin-2-yl)-2,3-dihydro-1H-indene-1,4-diamine] was run?
Its IC50 is > 500 nM.

With `Cn1cc(-c2cncc(N[C@H]3CCc4c(C(=O)OC5CCCCC5)cccc43)n2)cn1` [Compound 62, cyclohexyl(S)-1-((6-(1-methyl-1H-pyrazol-4-yl)pyrazin-2-yl)amino)-2,3-dihydro-1H-indene-4-carboxylate] as the compound, how does the IC50 read?
The IC50 was > 500 nM.

For `Cn1cc(-c2cncc(N[C@H]3CCc4c(NC5(c6ccccc6)COC5)cccc43)c2)cn1` [Compound 63, (S)—N^1-(5-(1-methyl-1H-pyrazol-4-yl)pyridin-3-yl)-N^4-(3-phenyloxetan-3-yl)-2,3-dihydro-1H-indene-1,4-diamine], which IC50 is on record?
Its IC50 is > 500 nM.

For `Cn1cc(-c2cncc(N[C@H]3CCc4c(NC(=O)N5CCC(C)(C)C5=O)cccc43)n2)cn1` [Compound 64, (S)-3,3-dimethyl-N-(1-((6-(1-methyl-1H-pyrazol-4-yl)pyrazin-2-yl)amino)-2,3-dihydro-1H-inden-4-yl)-2-oxopyrrolidine-1-carboxamide], which IC50 is on record?
The IC50 was 200 to 500 nM.

Which IC50 does the source give for `Cn1cc(-c2cncc(N[C@H]3CCc4c(NC(=O)NC5CCCCC5)cccc43)n2)cn1` [Compound 65a] here?
Its IC50 is < 50 nM.

With `Cn1cc(-c2cncc(N[C@H]3CCc4c(NC(=O)NC5CCC(F)(F)CC5)cccc43)n2)cn1` [Compound 65b] as the compound, how does the IC50 read?
Its IC50 is 50 to 200 nM.

Which IC50 does the source give for `Cn1cc(-c2cncc(N[C@H]3CCc4c(NC(=O)OC5CCCCC5)cccc43)n2)cn1` [Compound 65c] here?
Its IC50 is < 50 nM.

`Cn1cc(-c2cncc(N[C@H]3CCc4c(NC(=O)NCC5CC5)cccc43)n2)cn1` [Compound 65d] was tested. Which IC50 did it give?
Its IC50 is > 500 nM.

`Cn1cc(-c2cncc(N[C@H]3CCc4c(NC(=O)Nc5ccccc5F)cccc43)n2)cn1` [Compound 65e] was tested. Which IC50 did it give?
The IC50 was < 50 nM.

`Cn1cc(-c2cnc(N)c(O[C@H]3CCc4c(Nc5cc(C(C)(C)C)on5)cccc43)c2)cn1` [Compound 67, (S)—N-(1-((2-amino-5-(1-methyl-1H-pyrazol-4-yl)pyridin-3-yl)oxy)-2,3-dihydro-1H-inden-4-yl)-5-(tert-butyl) isoxazol-3-amine] was tested. Which IC50 did it give?
Its IC50 is < 50 nM.

With `Cn1cc(-c2cnc(N)c(O[C@H]3CCc4c(Nc5cc(C(C)(C)C)on5)cccc43)c2)cn1` [Compound 68, (S)—N-(1-((2-amino-5-(1-methyl-1H-pyrazol-4-yl)pyridin-3-yl)oxy)-2,3-dihydro-1H-inden-4-yl)-5-(tert-butyl) isoxazol-3-amine] as the compound, how does the IC50 read?
The IC50 was 200 to 500 nM.
